{
  "source": "paper PMC5120204",
  "about": "“Identification of an orally active small-molecule PTHR1 agonist for the treatment of hypoparathyroidism” (Nature Communications, 2016)",
  "key": {"[1]": {"experiment": "Pharmacokinetics in OVX rats", "type": "in vivo", "conditions": "female, Crl:CD(SD), rat, plasma", "protocol": "OVX was carried out in 32-week-old female Crl:CD (SD) rats (Charles River Laboratories). Twelve weeks after surgery, lumbar vertebral BMD (L3–L5) was measured in vivo by dual-energy X-ray absorptiometry (DXA) using a DCS-600EX-IIIR bone densitometer (Hitachi Aloka Medical), and the rats were divided into five groups, each with a similar mean value of BMD and body weight. Sample sizes were determined based on previous experiments with hPTHs and a published study with ibandronate and eldecalcitriol in our laboratories[42] (n=7–10). Then, OVX rats were treated once daily intravenously (vehicle or PCO371 at 3 or 10 mg kg^−1) or orally (vehicle or PCO371 at 30 mg kg^−1) or subcutaneously [vehicle or hPTH(1–34) at 0.9 nmol kg^−1] for 12 weeks. Ten to twelve OVX rats were assigned to each dose group. Nine rats were assigned to the sham-operated control group and were treated with vehicle for PCO371. Ten per cent DMSO (Wako Pure Chemical Industries)/10% Kolliphor EL (Sigma-Aldrich) in 10% hydroxypropyl-β-cyclodextrin (HPCD; Nihon Shokuhin Kako)/0.752% glycine (Wako Pure Chemical Industries) buffer was used as vehicle for PCO371, and phosphate-citrate buffer (pH 6.0) was used as vehicle for hPTH(1–34). To label bone-forming surfaces, tetracycline ([…], Nippon Zenyaku Kogyo) was subcutaneously injected on Day 78 and calcein (8 mg kg^−1, Dōjindo Laboratories) was subcutaneously injected on day 83. Under isoflurane anaesthesia, jugular vein blood was collected immediately before and at 1, 2, 6, 10 and 24 h after administration on day 82 to measure plasma concentration of PCO371 or on day 84 to measure serum Ca levels (o-CPC method, Wako Pure Chemical Industries). Urine was collected for 24 h from metabolic cages on days 84–85 to measure urinary collagen type 1 cross-linked C-telopeptide (CTX) by using the RatLaps ELISA System (Immunodiagnostic Systems). Under isoflurane anaesthesia, blood was collected on day 85 from the abdominal aorta to measure serum osteocalcin level by using the Rat Osteocalcin ELISA System (GE Healthcare). The lumbar spine and bilateral femurs were excised after 12 weeks of treatment. The first lumbar vertebra (L1), 3rd to 5th lumbar vertebrae (L3–L5), the right femur, and the right tibia were preserved in 70% ethanol to measure bone histomorphometry and BMD (DCS-600EX; Hitachi Aloka Medical). Measurement of bone histomorphometry was performed by the Ito Bone Histomorphometry Institute (Niigata, Japan). The second lumbar vertebra (L2) was wrapped in saline-soaked gauze and stored at −80 °C until measurement. Ultimate compressive strength (N) of the L2 vertebra was measured by using a mechanical testing machine (TK-252C; Muromachi Kikai)."}, "[2]": {"tested_on": "TPTX rats", "experiment": "Single administration study in TPTX rats", "type": "in vivo, rat", "conditions": "TPTX rats, single oral administration", "protocol": "TPTX was carried out in 6-week-old female Crl:CD(SD) rats (Charles River Laboratories). Rats with serum Ca levels of <8.0 mg dl^−1 at 5 days after surgery were used for the experiment. The rats were divided into six groups, each with a similar mean value of serum Ca levels and body weight. TPTX rats were treated once orally (vehicle or PCO371 at 1.3, 6.5 or 33 mg kg^−1) or subcutaneously (vehicle or hPTH(1–84) (Chugai Pharmaceutical) at 9 nmol kg^−1). Six TPTX rats were assigned to each dose group. The sample size was determined based on previous experiments and a published study with hPTHs and LA-PTH in our laboratories[24] (n=5–6). Vehicle for PCO371 was the same as in the OVX rat study, and phosphate-citrate buffer (pH 6.0) was used as vehicle for hPTH(1–84). Under isoflurane anaesthesia, jugular vein blood was collected immediately before and at 1, 2, 6, 10 and 24 h after administrations to measure serum Ca (o-CPC method, Wako Pure Chemical Industries) and Pi levels (xanthine oxidase method, Wako Pure Chemical Industries).\nIn another experiment, the effects of a single treatment with PCO371 or hPTH(1–34) on serum Ca and Pi in TPTX rats (6-week-old) were evaluated at the dose of 3, 9.5 or 30 mg kg^−1 (PCO371, p.o.) or 9 nmol kg^−1 (hPTH(1–34), s.c.) according to the same method as that described above."}, "[3]": {"tested_on": "TPTX rats", "experiment": "Repeated administration study in TPTX rats, study 2 (add-on to alfacalcidol)", "type": "in vivo, rat", "conditions": "once-daily oral 6 mg kg^−1 plus 38 ng kg^−1 of alfacalcidol, 4 weeks", "protocol": "TPTX was carried out in 6-week-old female Crl:CD (SD) rats (Charles River Laboratories). Rats with serum Ca levels of <8.0 mg dl^−1 at 5 days after surgery were used in the following experiments. The rats were divided into four groups both in study 1 and 2, each with a similar mean value of serum Ca levels and body weight. Sample sizes were determined as described in the above single administration study. To evaluate the calcemic effects of PCO371 and hPTHs, we defined a target therapeutic range for serum Ca of 7.6–11.2 mg dl^−1, which corresponds to the low normal to normal range of serum Ca levels.\nTPTX rats were orally treated once daily (vehicle; alfacalcidol (Chugai Pharma Manufacturing) at 38 or 75 ng kg^−1; or alfacalcidol at 38 ng kg^−1 plus PCO371 at 6 mg kg^−1) for 4 weeks. Five or six TPTX rats were assigned to each dose group. The vehicle for alfacalcidol was medium-chain triglyceride (Chugai Pharma Manufacturing). Under isoflurane anaesthesia, jugular vein blood was collected immediately before and at 6 and 10 h after administration to measure serum Ca levels on day 1 (the first dosing day), 8, 14, 22 and 28. Urine was collected for 24 h by using metabolic cages on days 28 and 29. Serum and urine Ca levels were measured in the same way as in the single-dosing study."}},
  "data": [
    {"compound": "Cc1cc(N2C(=O)NC(=O)C2(C)C)cc(C)c1CCS(=O)(=O)N1CCC2(CC1)N=C(c1ccc(OC(F)(F)F)cc1)NC2=O", "note": "[PCO371, 1-{3,5-dimethyl-4-[2-({4-oxo-2-[4-(trifluoromethoxy)phenyl]-1,3,8-triazaspiro[4.5]dec-1-en-8-yl}sulfonyl)ethyl]phenyl}-5,5-dimethylimidazolidine-2,4-dione]", "values": [
      {"measurement": "AUC", "setting": "[1]; iv, i.v. 3 mg kg-1", "value": 15500, "unit": "ng·h/mL"},
      {"measurement": "half-life", "setting": "[1]; iv, i.v. 3 mg kg-1", "value": "2.4 ± 0.2", "unit": "h"},
      {"measurement": "AUC", "setting": "[1]; iv, i.v. 10 mg kg-1", "value": 48700, "unit": "ng·h/mL"},
      {"measurement": "half-life", "setting": "[1]; iv, i.v. 10 mg kg-1", "value": "2.2 ± 0.2", "unit": "h"},
      {"measurement": "AUC", "setting": "[1]; po, p.o. 30 mg kg-1", "value": 29500, "unit": "ng·h/mL"},
      {"measurement": "Cmax", "setting": "[1]; po, p.o. 30 mg kg-1", "value": "95.6 ± 84.4", "unit": "ng/mL"},
      {"measurement": "Tmax", "setting": "[1]; po, p.o. 30 mg kg-1", "value": "1.4 ± 0.8", "unit": "h"},
      {"measurement": "half-life", "setting": "[1]; po, p.o. 30 mg kg-1", "value": "2.5 ± 0.3", "unit": "h"},
      {"measurement": "serum Ca", "setting": "[2]", "value": "dose-dependently increased"},
      {"measurement": "serum Pi", "setting": "[2]", "value": "decreased"},
      {"measurement": "serum Ca", "setting": "[3]", "value": "comparable with that by 75 ng kg^−1 of alfacalcidol alone"},
      {"measurement": "urinary Ca excretion", "setting": "[3]", "value": "did not elevate urinary Ca excretion"}
    ]}
  ]
}
